In patent US12447156B2, “Treating progressive familial intrahepatic cholestasis (PFIC) with IBAT inhibitors” (ALBIREO AB, priority 2020, dated 2025):
Marks after values point to notes of the source that are not given here.

Columns and labels:
[1] = test system: patients with PFIC3 or PFIC6; assay: PEDFIC 2: efficacy and safety in patients with PFIC3 or PFIC6; format: in vivo, human; details: for Common TEAEs by preferred term: ALT increased / Common TEAEs by preferred term: INR increased / Common TEAEs by preferred term: Total bilirubin increased / Common TEAEs by preferred term: Vitamin D deficiency / Mild TEAEs / Moderate TEAEs / Serious TEAEs / Severe TEAEs / TEAEs / TEAEs leading to discontinuation: 120 μg/kg once daily
Description: In PEDFIC 2, eligible patients are enrolled into one of 2 cohorts, based on the following criteria: Cohort 1 includes pediatric patients with PFIC1 or PFIC2 from PEDFIC 1 and cohort 2 includes patients of any age with any PFIC type; these are newly enrolled patients. In both cohorts, eligible patients are those with genetically confirmed PFIC, elevated serum bile acids (≥100 μmol/L), and significant pruritus (i.e., itching or scratching score of ≥2 per patient/caregiver report using the PRUCISION instrument). PEDFIC 2 includes a 72-week treatment period in which all patients receive oral, once-daily odevixibat 120 μg/kg.
Change from baseline in serum bile acids, pruritus, hepatic biochemical parameters, growth, and sleep; serum bile acid response (i.e., serum bile acids reduced ≥70% or levels ≤70 μmol/L); proportion of positive pruritus assessments (PPAs) at the patient level (i.e., pruritus score ≤1 or a ≥1-point drop from baseline); and treatment-emergent adverse events (TEAEs). Patient pruritus and sleep were evaluated twice daily by caregivers using the validated PRUCISION scale; pruritus responses range from 0 to 4, with higher scores indicating worse symptom.

[2] = test system: patients with PFIC with prior PEBD surgery; assay: PEDFIC 1/2 post hoc subgroup: patients with prior partial external biliary diversion (PEBD); format: in vivo, human; parameters: key: Y: sBAs reduced ≥70% or levels ≤70 μmol/L at last assesment; N, no; details: Patient 10 (prior PEBD, PFIC2; PEDFIC 2 only, 120 μg/kg/d; 35 weeks exposure)
Method: One surgical treatment option for patients with PFIC is partial external biliary diversion (PEBD), which can be used to reduce bile acid levels in patients with medically refractory pruritus. However, PEBD is not successful in all patients. […] This post hoc subgroup analysis evaluated the safety and efficacy of odevixibat in patients enrolled in the PEDFIC studies who had PEBD surgery prior to study entry.
In the double-blind PEDFIC 1 study, children with PFIC1 or PFIC2 were randomized to placebo or 40 or 120 μg/kg/day odevixibat for 24 weeks. In PEDFIC 2, an ongoing, open-label extension study, patients from PEDFIC 1 or newly enrolled patients with any PFIC subtype receive odevixibat 120 μg/kg/day. In both PEDFIC 1 and PEDFIC 2, eligible patients had elevated sBAs and significant pruritus at screening. Changes over time in sBA levels and observer-reported pruritus (range: 0-4; higher scores indicate worse symptoms), sleep parameters, and quality of life (QoL; assessed with the Pediatric Quality of Life Inventory [PedsQL]) were evaluated in the subgroup of patients from PEDFIC 1 and/or PEDFIC 2 with a medical history of PEBD surgery performed prior to study enrollment.

[3] = 6 patients with PFIC3 or PFIC6, 120 μg/kg
[4] = patient with PFIC6, N=1, oral once-daily 120 μg/kg
[5] = patients with PFIC3, N=4, oral once-daily 120 μg/kg

Q: Which results are given for CCCCC1(CCCC)CN(c2ccccc2)c2cc(SC)c(OCC(=O)N[C@@H](C(=O)N[C@@H](CC)C(=O)O)c3ccc(O)cc3)cc2S(=O)(=O)N1 [Odevixibat, 1,1-dioxo-3,3-dibutyl-5-phenyl-7-methylthio-8-(N-{(R)-α-[N-((S)-1-carboxypropyl)carbamoyl]-4-hydroxybenzyl}carbamoylmethoxy)-2,3,4,5-tetrahydro-1,2,5-benzothiadiazepine]?
A: patients who met criteria for serum bile acid response at the last assessment ([1]; 2 with PFIC3 and 1 with PFIC6, of 6 patients): Three; reductions in pruritus score from baseline to last assessment [1, 3]: all but 1 patient (PFIC3) had reductions in pruritus score; reductions in serum bile acids from baseline to last assessment [1, 3]: all patients with PFIC3 or PFIC6 had reductions in serum bile acids; Common TEAEs by preferred term: ALT increased ([1]; Patient 1 (PFIC3)): 0; Common TEAEs by preferred term: INR increased ([1]; Patient 1 (PFIC3)): 0; Common TEAEs by preferred term: Total bilirubin increased ([1]; Patient 1 (PFIC3)): 0; Common TEAEs by preferred term: Vitamin D deficiency ([1]; Patient 1 (PFIC3)): 0; Mild TEAEs ([1]; Patient 1 (PFIC3)): 0; Moderate TEAEs ([1]; Patient 1 (PFIC3)): 0; Serious TEAEs ([1]; Patient 1 (PFIC3)): 0; Severe TEAEs ([1]; Patient 1 (PFIC3)): 0; TEAEs ([1]; Patient 1 (PFIC3)): 0; TEAEs leading to discontinuation ([1]; Patient 1 (PFIC3)): 0; Common TEAEs by preferred term: ALT increased ([1]; Patient 2 (PFIC3)): 0; Common TEAEs by preferred term: INR increased ([1]; Patient 2 (PFIC3)): 1; Common TEAEs by preferred term: Total bilirubin increased ([1]; Patient 2 (PFIC3)): 1; Common TEAEs by preferred term: Vitamin D deficiency ([1]; Patient 2 (PFIC3)): 0; Mild TEAEs ([1]; Patient 2 (PFIC3)): 1; Moderate TEAEs ([1]; Patient 2 (PFIC3)): 2; Serious TEAEs ([1]; Patient 2 (PFIC3)): 0; Severe TEAEs ([1]; Patient 2 (PFIC3)): 0; TEAEs ([1]; Patient 2 (PFIC3)): 3; TEAEs leading to discontinuation ([1]; Patient 2 (PFIC3)): 0; Common TEAEs by preferred term: ALT increased ([1]; Patient 3 (PFIC3)): 1; Common TEAEs by preferred term: INR increased ([1]; Patient 3 (PFIC3)): 1; Common TEAEs by preferred term: Total bilirubin increased ([1]; Patient 3 (PFIC3)): 2; Common TEAEs by preferred term: Vitamin D deficiency ([1]; Patient 3 (PFIC3)): 0; Mild TEAEs ([1]; Patient 3 (PFIC3)): 0; Moderate TEAEs ([1]; Patient 3 (PFIC3)): 4; Serious TEAEs ([1]; Patient 3 (PFIC3)): 0; Severe TEAEs ([1]; Patient 3 (PFIC3)): 1; TEAEs ([1]; Patient 3 (PFIC3)): 5; TEAEs leading to discontinuation ([1]; Patient 3 (PFIC3)): 0; Common TEAEs by preferred term: ALT increased ([1]; Patient 4 (PFIC3)): 1; Common TEAEs by preferred term: INR increased ([1]; Patient 4 (PFIC3)): 0; Common TEAEs by preferred term: Total bilirubin increased ([1]; Patient 4 (PFIC3)): 0; Common TEAEs by preferred term: Vitamin D deficiency ([1]; Patient 4 (PFIC3)): 1; Mild TEAEs ([1]; Patient 4 (PFIC3)): 2; Moderate TEAEs ([1]; Patient 4 (PFIC3)): 0; Serious TEAEs ([1]; Patient 4 (PFIC3)): 0; Severe TEAEs ([1]; Patient 4 (PFIC3)): 3; TEAEs ([1]; Patient 4 (PFIC3)): 5; TEAEs leading to discontinuation ([1]; Patient 4 (PFIC3)): 0; Common TEAEs by preferred term: ALT increased ([1]; Patient 5 (PFIC3)): 0; Common TEAEs by preferred term: INR increased ([1]; Patient 5 (PFIC3)): 0; Common TEAEs by preferred term: Total bilirubin increased ([1]; Patient 5 (PFIC3)): 0; Common TEAEs by preferred term: Vitamin D deficiency ([1]; Patient 5 (PFIC3)): 2; Mild TEAEs ([1]; Patient 5 (PFIC3)): 3; Moderate TEAEs ([1]; Patient 5 (PFIC3)): 0; Serious TEAEs ([1]; Patient 5 (PFIC3)): 0; Severe TEAEs ([1]; Patient 5 (PFIC3)): 0; TEAEs ([1]; Patient 5 (PFIC3)): 3; TEAEs leading to discontinuation ([1]; Patient 5 (PFIC3)): 0; Common TEAEs by preferred term: ALT increased ([1]; Patient 6 (PFIC6)): 0; Common TEAEs by preferred term: INR increased ([1]; Patient 6 (PFIC6)): 0; Common TEAEs by preferred term: Total bilirubin increased ([1]; Patient 6 (PFIC6)): 0; Common TEAEs by preferred term: Vitamin D deficiency ([1]; Patient 6 (PFIC6)): 0; Mild TEAEs ([1]; Patient 6 (PFIC6)): 1; Moderate TEAEs ([1]; Patient 6 (PFIC6)): 0; Serious TEAEs ([1]; Patient 6 (PFIC6)): 0; Severe TEAEs ([1]; Patient 6 (PFIC6)): 0; TEAEs ([1]; Patient 6 (PFIC6)): 1; TEAEs leading to discontinuation ([1]; Patient 6 (PFIC6)): 0; % of days needing help falling asleep, change from baseline to weeks 34-36 [1, 4]: −21^a %; % of days needing soothing, change from baseline to weeks 34-36 [1, 4]: −36^a %; % of days sleeping with caregiver, change from baseline to weeks 34-36 [1, 4]: 0^a %; % of days with bleeding associated with scratching, change from baseline to weeks 34-36 [1, 4]: 0^a %; Height Z score, change from baseline to week 36 [1, 4]: 0.1; Pruritus score, change from baseline to weeks 34-36 [1, 4]: −1.8^a; Serum ALT, change from baseline to week 36 [1, 4]: 89 U/L; Serum bile acids, change from baseline to week 36 [1, 4]: -78 µmol/L; Total bilirubin, change from baseline to week 36 [1, 4]: -83 µmol/L; Weight Z score, change from baseline to week 36 [1, 4]: 0.5; % of days needing help falling asleep, mean (SE) change from baseline to weeks 34-36 [1, 5]: −29 (24)^a %; % of days needing soothing, mean (SE) change from baseline to weeks 34-36 [1, 5]: −28 (21)^a %; % of days sleeping with caregiver, mean (SE) change from baseline to weeks 34-36 [1, 5]: −27 (22)^a %; % of days with bleeding associated with scratching, mean (SE) change from baseline to weeks 34-36 [1, 5]: 6 (6)^a %; Height Z score, mean (SE) change from baseline to week 36 [1, 5]: 0.2 (0.2); Pruritus score, mean (SE) change from baseline to weeks 34-36 [1, 5]: −1.6 (0.4)^a; Serum ALT, mean (SE) change from baseline to week 36 [1, 5]: 67 (21) U/L; Serum bile acids, mean (SE) change from baseline to week 36 [1, 5]: −91 (37) μmol/L; Total bilirubin, mean (SE) change from baseline to week 36 [1, 5]: 18 (13) μmol/L; Weight Z score, mean (SE) change from baseline to week 36 [1, 5]: 0.1 (0.4); patients who experienced any TEAE ([1]; patients with PFIC3 or PFIC6): 5 of 6; serious TEAEs, TEAEs leading to discontinuation, or deaths ([1]; patients with PFIC3 or PFIC6): no serious TEAEs, TEAEs leading to discontinuation, or deaths; tolerability ([1]; patients with PFIC3 or PFIC6, up to the data cutoff in PEDFIC 2): generally well tolerated; positive pruritus assessments (PPAs) ([1]; weeks 0-22, 1 additional patient with PFIC3): 99%; positive pruritus assessments (PPAs) ([1]; weeks 0-36, 5 patients with available data (4 with PFIC3, 1 with PFIC6)): ≥ 85%; sBA Responder? [2]: Y
